From patent US20240002380A1, “REV-ERB AGONISTS” (Saint Louis University, priority 2020, published 2024)
Where two headings read alike, the source gives them in different places.

Assays:
REV-ERBα = REV-ERBα (Homo sapiens (Human), UniProt P20393); assay: FRET assay for REV-ERB ligands (REV-ERBα LBD / NCoR ID2 peptide interaction); assay type: biochemical; settings: TR-FRET, His-tagged REV-ERBα LBD, fluorescein NCoR ID2 peptide; read-out: RevErbα Inhibition IC50
Protocol: (§1) Example A: FRET Assay for REV-ERB Ligands
(§2) The capacity for compounds to function as ligands for either REV-ERBα or REV-ERBβ was assessed using a fluorescent resonance energy transfer assay that detects the interaction between these receptors and the Nuclear Receptor Corepressor (NCoR) protein (the ID2 corepressor interaction domain peptides is used). This interaction is known to be ligand dependent and thus this assay that can detect an alteration of the affinity of these two proteins is able to detect ligands. The His-tagged ligand binding domain (LBD) of either REV-ERBα or REV-ERBβ and fluorescein labeled NCoR ID2 peptide (Life Technologies #PV4624) is used in these assays. The His-tagged LBDs were expressed in E. coli (amino acids 281-614 REV-ERBα and 381-579 REV-ERBβ) and labeled with a Terbium (Tb) labeled anti-His antibody (Life Technologies #PV5895). The assay buffer was PBS (phosphate buffered saline) with 5 mM DTT (dithiothreitol). The final concentration of various reagents in the assay are: REV-ERB LBD (either isoform) [5 nM], Fluorescein labeled NCoR ID2 peptide [250 nM], Tb labeled anti-his antibody [10 nM], dimethylsulfoxide [1%] and test compound [varying concentrations]. The assay was performed in Corning NBS black 384-well plates in a total volume of 20 μl. The assay plate was incubated for 1 hour at room temperature protected from light and then TR-FRET was assessed on a Biotek plate reader with the following excitation/emission pairs (340 nm/495 nm and 340 nm/520 nm. The 520 nm/495 nm emission signal ratio was used as an indicator of the degree of interaction between the LBD and NCoR peptide and EC50's were calculated using GraphPad Prizm software.

REV-ERBβ = REV-ERBβ (Homo sapiens (Human), UniProt Q14995); assay: FRET assay for REV-ERB ligands (REV-ERBβ LBD / NCoR ID2 peptide interaction); assay type: biochemical; settings: TR-FRET, His-tagged REV-ERBβ LBD, fluorescein NCoR ID2 peptide; read-out: RevErbβ Inhibition IC50
Protocol: as §1, §2

[1] = test system: senescence accelerated mouse P8 (SAMP8) mouse model; settings: SAMP8 mice, AD-like pathology; cited from earlier work
[2] = Plasma pharmacokinetics after intraperitoneal injection in mice; assay type: in vivo; settings: mouse, 5 mg/kg IP; for Vd/F: read-out: Vz/F
Protocol: Example B: Pharmacokinetics of Selected Compounds
Mice were injected intraperitoneally with (5 mg/kg) of the compound of Example 71 or Example 78 and plasma samples were taken at intervals of […], 0.25 hr, 0.5 hr. 1.0 hr, 3.0 hr, and 6.0 hr post-administration in order to analyze the pharmacokinetic profile of these compounds. The mean plasma content for male and for female mice at these time points post-injection are shown for Example 71 in FIG. 1A and Table 3, and for Example 78, in FIG. 1B and Table 4.

Chain of REV-ERBβ (Q14995 381-579): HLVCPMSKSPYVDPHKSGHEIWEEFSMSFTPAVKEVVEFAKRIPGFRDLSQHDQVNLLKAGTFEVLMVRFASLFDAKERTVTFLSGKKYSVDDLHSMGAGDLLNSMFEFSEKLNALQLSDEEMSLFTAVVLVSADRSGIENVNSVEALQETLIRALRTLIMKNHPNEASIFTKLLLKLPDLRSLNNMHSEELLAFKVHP
Chain of REV-ERBα (P20393 281-614): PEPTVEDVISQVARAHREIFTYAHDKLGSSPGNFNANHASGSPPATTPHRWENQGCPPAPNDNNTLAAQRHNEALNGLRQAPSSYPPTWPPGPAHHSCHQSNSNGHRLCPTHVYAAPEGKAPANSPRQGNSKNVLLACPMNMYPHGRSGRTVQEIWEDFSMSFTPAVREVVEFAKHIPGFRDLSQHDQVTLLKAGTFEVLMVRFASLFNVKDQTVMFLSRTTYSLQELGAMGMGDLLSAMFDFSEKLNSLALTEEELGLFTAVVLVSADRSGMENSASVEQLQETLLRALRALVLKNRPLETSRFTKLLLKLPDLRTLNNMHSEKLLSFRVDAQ

In the case of `Cn1cnc2ccc(Oc3ccccc3-c3cccnc3)nc21` [Example 6, 3-methyl-5-(2-(pyridin-3-yl)phenoxy)-3H-imidazo[4,5-b]pyridine], the IC50 (REV-ERBα) is reported as at most 0.25 µM.

`FC(F)(F)c1cc(Oc2ccccc2-c2ccccc2)nc2ccccc12` [Example 34, 2-([1,1′-biphenyl]-2-yloxy)-4-(trifluoromethyl)quinoline] gave an IC50 (REV-ERBβ) of over 1 µM.

`FC(F)(F)c1ccccc1Oc1ccc2ccncc2n1` [Example 44, 2-(2-(trifluoromethyl)phenoxy)-1,7-naphthyridine] gave an IC50 (REV-ERBβ) of at most 0.25 µM.

`Cn1ncc2ccc(Oc3ccccc3-c3cccc(F)c3)nc21` [Example 14, 6-(3′-fluorobiphenyl-2-yloxy)-1-methyl-1H-pyrazolo[3,4-b]pyridine] gave an IC50 (REV-ERBα) of 0.25 to 1 µM.

Compound `c1ccc(-c2ccccc2Oc2ccc3cnccc3n2)nc1` [Example 45, 2-(2-(pyridin-2-yl)phenoxy)-1,6-naphthyridine] has an IC50 (REV-ERBα) of over 1 µM and an IC50 (REV-ERBβ) of at most 0.25 µM.

`c1cc2ccc(OC3CCCCC3)nc2cn1` [Example 57, 2-(cyclohexyloxy)-1,7-naphthyridine] showed an IC50 (REV-ERBα) of over 1 µM.

With `CNc1cccc(-c2ccccc2Oc2ncc3ccn(C)c3n2)c1` [Example 17, N-methyl-2′-(7-methyl-7H-pyrrolo[2,3-d]pyrimidin-2-yloxy)biphenyl-3-amine] the IC50 (REV-ERBα) was at most 0.25 µM.

`c1ccc2c(Oc3ccc4cnccc4n3)cccc2c1` [Example 56, 2-(naphthalen-1-yloxy)-1,6-naphthyridine] gave an IC50 (REV-ERBα) of over 1 µM and an IC50 (REV-ERBβ) of over 1 µM.

For `CCOC(=O)N1CCC(CN(Cc2ccc(Cl)cc2)Cc2ccc([N+](=O)[O-])s2)C1` (stereo not shown) [SR9009], the “reversing the cognitive decline” value [1] is listed as “effective in reversing the cognitive decline”.

Work on `Cc1cccc(-c2ccccc2Oc2ccc3ncn(C)c3n2)c1` [Example 4, 3-methyl-5-(3′-methylbiphenyl-2-yloxy)-3H-imidazo[4,5-b]pyridine] yielded an IC50 (REV-ERBβ) of at most 0.25 µM.

`c1ccc(-c2cccc(Oc3ccc4ccncc4n3)c2)cc1` [Example 51, 2-([1,1′-biphenyl]-3-yloxy)-1,7-naphthyridine] showed an IC50 (REV-ERBβ) of over 1 µM.

For `Cc1cccc(-c2ccccc2Oc2ccc3cnn(C)c3n2)c1` [Example 13, 1-methyl-6-(3′-methylbiphenyl-2-yloxy)-1H-pyrazolo[3,4-b]pyridine], the IC50 (REV-ERBα) was over 1 µM.

`Cc1cc(C)c(Oc2ccc3cnccc3n2)c(-c2ccccc2)c1` [Example 71, 2-((3,5-dimethyl-[1,1′-biphenyl]-2-yl)oxy)-1,6-naphthyridine] gave an AUC(0-inf) ([2]; female mice) of 0.172 µg·h/mL, an AUC(0-t) ([2]; female mice) of 0.169 µg·h/mL and a CL/F ([2]; female mice) of 29 L/h/kg. The Cmax ([2]; female mice) was 0.345 µg/mL, the Tmax ([2]; female mice) was 4.98 min and the half-life ([2]; female mice) was 31.2 min. The Vd/F ([2]; female mice) was 21.9 L/kg, the AUC(0-inf) ([2]; male mice) was 0.225 µg·h/mL and the AUC(0-t) ([2]; male mice) was 0.222 µg·h/mL. For the same compound, the CL/F ([2]; male mice) was 22.3 L/h/kg, the Cmax ([2]; male mice) was 0.317 µg/mL and the Tmax ([2]; male mice) was 4.98 min. The half-life ([2]; male mice) was 28.2 min and the Vd/F ([2]; male mice) was 15.2 L/kg.

Compound `c1ccc(-c2ccccc2Oc2ccc3ccncc3n2)cc1` [Example 59, 2-([1,1′-biphenyl]-2-yloxy)-1,7-naphthyridine] has an IC50 (REV-ERBα) of at most 0.25 µM and an IC50 (REV-ERBβ) of at most 0.25 µM.

`c1ccc(-c2ccccc2Oc2ccc3ncccc3n2)cc1` [Example 68, 2-([1,1′-biphenyl]-2-yloxy)-1,5-naphthyridine] gave an IC50 (REV-ERBα) of 0.25 to 1 µM and an IC50 (REV-ERBβ) of over 1 µM.

With `Cn1cnc2ccc(Oc3ccccc3-c3ccccc3)nc21` [Example 3, 5-([1,1′-biphenyl]-2-yloxy)-3-methyl-3H-imidazo[4,5-b]pyridine] the IC50 (REV-ERBα) was 0.25 to 1 µM and the IC50 (REV-ERBβ) was at most 0.25 µM.

Compound `c1ccc(C2CCCCC2)c(Oc2ccc3cnccc3n2)c1` [Example 49, 2-(2-cyclohexylphenoxy)-1,6-naphthyridine] has an IC50 (REV-ERBα) of 0.25 to 1 µM.

`c1ccc2cc(Oc3ccc4ccncc4n3)ccc2c1` [Example 70, 2-(naphthalen-2-yloxy)-1,7-naphthyridine] gave an IC50 (REV-ERBα) of at most 0.25 µM.

Compound `c1ccc(C2CCCCC2)c(Oc2ccc3ccncc3n2)c1` [Example 48, 2-(2-cyclohexylphenoxy)-1,7-naphthyridine] has an IC50 (REV-ERBα) of at most 0.25 µM.

Work on `Cn1ncc2cnc(Oc3ccccc3-c3cccnc3)nc21` [Example 10, 1-methyl-6-(2-(pyridin-3-yl)phenoxy)-1H-pyrazolo[3,4-d]pyrimidine] yielded an IC50 (REV-ERBα) of at most 0.25 µM and an IC50 (REV-ERBβ) of at most 0.25 µM.

With `c1ccc(-c2ccccc2Oc2ccc3cnccc3n2)cc1` [Example 24, 2-(biphenyl-2-yloxy)-1,6-naphthyridine] the IC50 (REV-ERBα) was at most 0.25 µM.

In the case of `Cc1nn(C)c2cnc(Oc3ccccc3-c3ccccc3)nc12` [Example 21, 5-([1,1′-biphenyl]-2-yloxy)-1,3-dimethyl-1H-pyrazolo[4,3-d]pyrimidine], the IC50 (REV-ERBα) is reported as over 1 µM.

`c1ccc(-c2ccccc2Oc2ncc3cnccc3n2)cc1` [Example 22, 2-(biphenyl-2-yloxy)pyrido[4,3-d]pyrimidine] showed an IC50 (REV-ERBα) of at most 0.25 µM.

`COc1ccc2c(C(F)(F)F)cc(SCC(=O)NCCc3ccc(F)cc3)nc2c1` [Example 62, N-(4-fluorophenethyl)-2-((7-methoxy-4-(trifluoromethyl)quinolin-2-yl)thio)acetamide] showed an IC50 (REV-ERBα) of at most 0.25 µM.

For `COc1ccc(-c2ccc(C(F)(F)F)cc2Oc2ccc3cnccc3n2)cc1` [Example 78, 2-((4′-methoxy-4-(trifluoromethyl)-[1,1′-biphenyl]-2-yl)oxy)-1,6-naphthyridine], the AUC(0-t) ([2]; Table 4, female mice) was 0.137 µg·h/mL, the Cmax ([2]; Table 4, female mice) was 0.269 µg/mL and the Tmax ([2]; Table 4, female mice) was 15 min. It also gave an AUC(0-t) ([2]; Table 4, male mice) of 0.343 µg·h/mL, a CL/F ([2]; Table 4, male mice) of 14.3 L/h/kg and a Cmax ([2]; Table 4, male mice) of 0.33 µg/mL. For the same compound, the Tmax ([2]; Table 4, male mice) was 15 min, the half-life ([2]; Table 4, male mice) was 33 min and the Vd/F ([2]; Table 4, male mice) was 11.3 L/kg.

With `c1ccc2c(Oc3ccc4ccncc4n3)cccc2c1` [Example 54, 2-(naphthalen-1-yloxy)-1,7-naphthyridine] the IC50 (REV-ERBα) was at most 0.25 µM.

`COc1ccc2c(C(F)(F)F)cc(Oc3ccccc3-c3ccccn3)nc2c1` [Example 36, 7-methoxy-2-(2-(pyridin-2-yl)phenoxy)-4-(trifluoromethyl)quinoline] showed an IC50 (REV-ERBα) of at most 0.25 µM.

Work on `Cn1cnc2ccc(Oc3ccccc3-c3cccc(F)c3)nc21` [Example 5, 5-(3′-fluorobiphenyl-2-yloxy)-3-methyl-3H-imidazo[4,5-b]pyridine] yielded an IC50 (REV-ERBα) of at most 0.25 µM and an IC50 (REV-ERBβ) of 0.25 to 1 µM.

`FC(F)(F)c1ccccc1Oc1ccc2cnccc2n1` [Example 46, 2-(2-(trifluoromethyl)phenoxy)-1,6-naphthyridine] gave an IC50 (REV-ERBα) of 0.25 to 1 µM and an IC50 (REV-ERBβ) of over 1 µM.
